Data reported in patent publication US10770169B2, “Method of providing a treatment to a subject based on a dynamic pathway map” (THE REGENTS OF THE UNIVERSITY OF CALIFORNIA, priority 2010, dated 2020).
Like-named read-outs stand apart in the source and are kept apart here.

Tests used:
[1] = tested on: panel of 55 breast cancer cell lines; test: Cell growth inhibition assay (Cell Titer Glo, 72 h, 9 doses; GI50, TGI, LC50); assay type: cell-based, human; details: Homo sapiens, read-out: GI50 (converted)
[2] = tested on: luminal, basal, claudin-low and ERBB2AMP breast cancer cell lines; test: Associations of clinically relevant subtypes and response (non-parametric ANOVA or t-test on GI50 ranks); assay type: cell-based, human; details: Table 6; most sensitive subtype, FDR p<0.20
How it was run: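 Significance was set at FDR p<0.20 after combining p-values across three test sets. Subtype–response associations came from rank-based non-parametric ANOVA or t-tests on GI50. For three-class comparisons, post-hoc tests of each group against the rest identified the most sensitive group, with FDR correction.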

CCNCCCNC/C=C\CNCCCNCC [CGC-11047]
GI50 ([1]; 600MPE cell line, censored GI50 values): 468 µM | GI50 ([1]; AU565, AU565 cell line, censored GI50 values): 288 µM | GI50 ([1]; AU565, cell line AU565): 288 µM | GI50 ([1]; BT-474, BT474 cell line, censored GI50 values): 269 µM | GI50 ([1]; BT-474, cell line BT474): 269 µM | GI50 ([1]; BT-483, BT483 cell line, censored GI50 values): 589 µM | GI50 ([1]; BT-483, cell line BT483): 589 µM | GI50 ([1]; BT-549, BT549 cell line, censored GI50 values): 29.5 µM | GI50 ([1]; BT-549, cell line BT549): 29.5 µM | GI50 ([1]; CAMA-1, CAMA1 cell line, censored GI50 values): 1260 µM | GI50 ([1]; CAMA-1, cell line CAMA1): 1260 µM | GI50 ([1]; HCC38, HCC38 cell line, censored GI50 values): 11.7 µM | GI50 ([1]; HCC38, cell line HCC38): 11.7 µM | GI50 ([1]; HCC70, HCC70 cell line, censored GI50 values): 2.09 µM | GI50 ([1]; HCC70, cell line HCC70): 2.09 µM | GI50 ([1]; HCC202, HCC202 cell line, censored GI50 values): 14.5 µM | GI50 ([1]; HCC202, cell line HCC202): 14.5 µM | GI50 ([1]; HCC1143, HCC1143 cell line, censored GI50 values): 112 µM | GI50 ([1]; HCC1143, cell line HCC1143): 112 µM | GI50 ([1]; HCC1187, HCC1187 cell line, censored GI50 values): 1550 µM | GI50 ([1]; HCC1187, cell line HCC1187): 1550 µM | GI50 ([1]; HCC1395, HCC1395 cell line, censored GI50 values): 87.1 µM | GI50 ([1]; HCC1395, cell line HCC1395): 87.1 µM | GI50 ([1]; HCC1419, HCC1419 cell line, censored GI50 values): 14.1 µM | GI50 ([1]; HCC1419, cell line HCC1419): 14.1 µM | GI50 ([1]; HCC1428, HCC1428 cell line, censored GI50 values): 204 µM | GI50 ([1]; HCC1428, cell line HCC1428): 204 µM | GI50 ([1]; HCC1500, HCC1500 cell line, censored GI50 values): 63.1 µM | GI50 ([1]; HCC1500, cell line HCC1500): 63.1 µM | GI50 ([1]; HCC1806, HCC1806 cell line, censored GI50 values): 74.1 µM | GI50 ([1]; HCC1806, cell line HCC1806): 74.1 µM | GI50 ([1]; HCC1937, HCC1937 cell line, censored GI50 values): 6.92 µM | GI50 ([1]; HCC1937, cell line HCC1937): 6.92 µM | GI50 ([1]; HCC1954, HCC1954 cell line, censored GI50 values): 0.692 µM | GI50 ([1]; HCC1954, cell line HCC1954): 0.692 µM | GI50 ([1]; HCC2185 cell line, censored GI50 values): 407 µM | GI50 ([1]; HCC3153 cell line, censored GI50 values): 5.75 µM | GI50 ([1]; LY2 cell line, censored GI50 values): 1510 µM | GI50 ([1]; MCF7, MCF7 cell line, censored GI50 values): 85.1 µM | GI50 ([1]; MCF7, cell line MCF7): 85.1 µM | GI50 ([1]; MDA-MB-134-VI, MDAMB134VI cell line, censored GI50 values): 1070 µM | GI50 ([1]; MDA-MB-157, MDAMB157 cell line, censored GI50 values): 1020 µM | GI50 ([1]; MDA-MB-157, cell line MDAMB157): 1020 µM | GI50 ([1]; MDA-MB-175-VII, MDAMB175VII cell line, censored GI50 values): 617 µM | GI50 ([1]; MDA-MB-231, MDAMB231 cell line, censored GI50 values): 2510 µM | GI50 ([1]; MDA-MB-231, cell line MDAMB231): 2510 µM | GI50 ([1]; MDA-MB-361, MDAMB361 cell line, censored GI50 values): 708 µM | GI50 ([1]; MDA-MB-361, cell line MDAMB361): 708 µM | GI50 ([1]; MDA-MB-415, MDAMB415 cell line, censored GI50 values): 75.9 µM | GI50 ([1]; MDA-MB-415, cell line MDAMB415): 75.9 µM | GI50 ([1]; MDA-MB-436, MDAMB436 cell line, censored GI50 values): 380 µM | GI50 ([1]; MDA-MB-436, cell line MDAMB436): 380 µM | GI50 ([1]; MDA-MB-453, MDAMB453 cell line, censored GI50 values): 501 µM | GI50 ([1]; MDA-MB-453, cell line MDAMB453): 501 µM | GI50 ([1]; MDA-MB-468, MDAMB468 cell line, censored GI50 values): 0.891 µM | GI50 ([1]; MDA-MB-468, cell line MDAMB468): 0.891 µM | GI50 ([1]; SK-BR-3, cell line SKBR3): 5010 µM | GI50 ([1]; SUM52PE, cell line SUM52PE): 3.55 µM | GI50 ([1]; SUM149PT, SUM149PT cell line, censored GI50 values): 28.8 µM | GI50 ([1]; SUM149PT, cell line SUM149PT): 28.8 µM | GI50 ([1]; SUM185PE, cell line SUM185PE): 501 µM | GI50 ([1]; SUM1315MO2, SUM1315MO2 cell line, censored GI50 values): 708 µM | GI50 ([1]; SUM-159-PT, SUM159PT cell line, censored GI50 values): 107 µM | GI50 ([1]; SUM-159-PT, cell line SUM159PT): 107 µM | GI50 ([1]; T47D, cell line T47D): 9.33 µM | GI50 ([1]; UACC-812, cell line UACC812): 339 µM | GI50 ([1]; UACC-893, cell line UACC893): 2090 µM | GI50 ([1]; ZR-75-1, cell line ZR751): 501 µM | GI50 ([1]; ZR-75-30, cell line ZR7530): 5010 µM | GI50 ([1]; ZR-75B, cell line ZR75B): 562 µM | GI50 ([1]; cell line 600MPE): 468 µM | GI50 ([1]; cell line HCC2185): 407 µM | GI50 ([1]; cell line HCC3153): 5.75 µM | GI50 ([1]; cell line LY2): 1510 µM | GI50 ([1]; cell line MDAMB134V): 1070 µM | GI50 ([1]; cell line MDAMB175V): 617 µM | GI50 ([1]; cell line SUM1315MO): 708 µM | Subtype specificity [2]: Basal
